One series concerns the target T1, hαvβ1 (Homo sapiens, UniProt P05556+P06756).
T1 construct: The full extracellular domains for all α and β integrin subunits; (GGGS)3 linker (C); acidic coiled-coil with cysteine (C); GG-Avitag (C); hexa-histidine tag (C); basic coiled-coil with cysteine (C); made in house; host or cells: Expi293 cells
The series can be described thus: Human AlphaLISA integrin-ligand blocking assay (fibronectin). The class given is biochemical. Here is the method: (§1) Integrin AlphaLISA assay. In the AlphaLISA integrin assays, we used a HEPES based buffer (25 mM HEPES pH 7.4, 137 mM NaCl, 1 mM MgCl2, 1 mM MnCl2, 2 mM CaCl2, 2.7 mM KCl, and 0.05% Tween 20). Optimal assay conditions were determined with a titration of the reagents for signal noise ratio (S/N), linear range, etc. For the respective integrins, we used the final concentrations described in Table 9.
(§2) Briefly, the testing antibody (8 μL) was added as a 4×(of Final testing concentration) solution in the HEPES buffer described previously into a 384w AlphaPlate™ (Perkin Elmer #6005350). Then the integrin and ligand were added sequentially as 8×(4 μL each). Plates were sealed and incubated at room temperature for two hours. Then 4×acceptor bead solution ([…]) was added, and the plates were resealed and incubated at room temperature (RT) for one hour. Finally, 4×([…]) donor beads solution was added in a darkened room and incubated for 45 minutes at room temperature. Plates were read on the Envision (Perkin Elmer) in AlphaScreen™ mode within three hours of donor bead addition.
Background: In Alpha technology, singlet oxygen from a donor bead excites a nearby acceptor bead.

The target of the next series is T2, hα5β1 (Homo sapiens, UniProt P05556+P08648).
T2 construct: The full extracellular domains for all α and β integrin subunits; (GGGS)3 linker (C); acidic coiled-coil with cysteine (C); GG-Avitag (C); hexa-histidine tag (C); basic coiled-coil with cysteine (C); made in house; host or cells: Expi293 cells
T2 sequence (P08648 42-995 limits assumed): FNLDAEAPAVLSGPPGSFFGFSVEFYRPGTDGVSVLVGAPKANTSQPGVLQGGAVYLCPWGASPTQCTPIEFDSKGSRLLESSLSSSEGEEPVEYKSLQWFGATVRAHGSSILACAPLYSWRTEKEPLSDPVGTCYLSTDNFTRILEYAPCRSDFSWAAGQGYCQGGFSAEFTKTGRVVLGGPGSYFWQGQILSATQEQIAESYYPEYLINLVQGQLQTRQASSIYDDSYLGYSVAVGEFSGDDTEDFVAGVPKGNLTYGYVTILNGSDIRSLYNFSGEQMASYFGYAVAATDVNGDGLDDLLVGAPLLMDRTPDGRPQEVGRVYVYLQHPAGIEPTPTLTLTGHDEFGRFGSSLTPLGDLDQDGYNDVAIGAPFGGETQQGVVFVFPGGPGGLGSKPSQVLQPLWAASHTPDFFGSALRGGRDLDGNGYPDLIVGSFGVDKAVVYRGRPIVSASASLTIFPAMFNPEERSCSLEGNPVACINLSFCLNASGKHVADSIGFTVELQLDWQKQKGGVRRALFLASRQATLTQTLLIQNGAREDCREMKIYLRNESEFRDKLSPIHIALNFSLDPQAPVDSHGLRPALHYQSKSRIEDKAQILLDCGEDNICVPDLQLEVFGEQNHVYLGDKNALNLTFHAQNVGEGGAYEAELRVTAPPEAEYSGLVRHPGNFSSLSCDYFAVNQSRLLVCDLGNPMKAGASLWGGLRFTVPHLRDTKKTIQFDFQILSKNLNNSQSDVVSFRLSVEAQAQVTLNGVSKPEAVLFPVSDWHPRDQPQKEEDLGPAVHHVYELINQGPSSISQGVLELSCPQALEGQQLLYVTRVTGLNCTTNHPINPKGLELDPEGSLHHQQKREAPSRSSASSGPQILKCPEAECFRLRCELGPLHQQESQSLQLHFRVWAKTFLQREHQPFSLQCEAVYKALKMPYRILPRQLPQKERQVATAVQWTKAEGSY
T2 sequence (P05556 21-728 limits assumed): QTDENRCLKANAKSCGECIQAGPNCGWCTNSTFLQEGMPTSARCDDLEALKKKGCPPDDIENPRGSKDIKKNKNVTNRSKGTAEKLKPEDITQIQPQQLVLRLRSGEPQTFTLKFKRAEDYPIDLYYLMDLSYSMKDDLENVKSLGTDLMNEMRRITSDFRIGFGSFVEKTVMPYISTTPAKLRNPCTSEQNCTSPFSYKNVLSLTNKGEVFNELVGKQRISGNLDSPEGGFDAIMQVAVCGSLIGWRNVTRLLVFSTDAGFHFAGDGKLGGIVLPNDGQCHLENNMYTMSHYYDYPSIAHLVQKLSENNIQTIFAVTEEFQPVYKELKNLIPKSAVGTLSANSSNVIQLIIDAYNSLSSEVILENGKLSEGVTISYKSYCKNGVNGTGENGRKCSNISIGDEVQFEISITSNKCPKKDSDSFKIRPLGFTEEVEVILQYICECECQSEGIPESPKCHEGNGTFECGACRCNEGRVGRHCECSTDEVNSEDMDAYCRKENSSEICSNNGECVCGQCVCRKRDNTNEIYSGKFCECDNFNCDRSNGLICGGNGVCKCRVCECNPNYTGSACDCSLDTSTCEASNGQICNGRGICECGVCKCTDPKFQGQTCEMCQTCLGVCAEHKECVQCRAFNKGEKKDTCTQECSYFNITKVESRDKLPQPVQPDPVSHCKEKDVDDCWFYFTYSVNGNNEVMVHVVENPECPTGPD
The series is described as above. The class given is biochemical. Here is the method:
as §1, §2

The conditions of series [1]: humans; cited from earlier work.
The target in the next series is T3, mαvβ3 (Mus musculus, UniProt O54890+P43406).
T3 construct: The full extracellular domains for all α and β integrin subunits; (GGGS)3 linker (C); acidic coiled-coil with cysteine (C); GG-Avitag (C); hexa-histidine tag (C); basic coiled-coil with cysteine (C); made in house; host or cells: Expi293 cells
As to the kind of experiment: Mouse AlphaLISA integrin-ligand blocking assay (vitronectin). The class given is biochemical. To be noted: Table 12; read-out: IC50 Mouse integrin AlphaLISA assays mαvβ3. How it is done: as §1, §2

The target in the next series is T4, mαvβ5 (Mus musculus, UniProt O70309+P43406).
T4 construct: The full extracellular domains for all α and β integrin subunits; (GGGS)3 linker (C); acidic coiled-coil with cysteine (C); GG-Avitag (C); hexa-histidine tag (C); basic coiled-coil with cysteine (C); made in house; host or cells: Expi293 cells
Described as above. It is filed as biochemical. The settings on record: Table 12; read-out: IC50 Mouse integrin AlphaLISA assays mαvβ5. How it is done: as §1, §2

For the next series, the target named is T5, hαvβ6 (Homo sapiens, UniProt P06756+P18564).
T5 construct: The full extracellular domains for all α and β integrin subunits; (GGGS)3 linker (C); acidic coiled-coil with cysteine (C); GG-Avitag (C); hexa-histidine tag (C); basic coiled-coil with cysteine (C); made in house; host or cells: Expi293 cells
T5 sequence (P06756 31-992 limits assumed): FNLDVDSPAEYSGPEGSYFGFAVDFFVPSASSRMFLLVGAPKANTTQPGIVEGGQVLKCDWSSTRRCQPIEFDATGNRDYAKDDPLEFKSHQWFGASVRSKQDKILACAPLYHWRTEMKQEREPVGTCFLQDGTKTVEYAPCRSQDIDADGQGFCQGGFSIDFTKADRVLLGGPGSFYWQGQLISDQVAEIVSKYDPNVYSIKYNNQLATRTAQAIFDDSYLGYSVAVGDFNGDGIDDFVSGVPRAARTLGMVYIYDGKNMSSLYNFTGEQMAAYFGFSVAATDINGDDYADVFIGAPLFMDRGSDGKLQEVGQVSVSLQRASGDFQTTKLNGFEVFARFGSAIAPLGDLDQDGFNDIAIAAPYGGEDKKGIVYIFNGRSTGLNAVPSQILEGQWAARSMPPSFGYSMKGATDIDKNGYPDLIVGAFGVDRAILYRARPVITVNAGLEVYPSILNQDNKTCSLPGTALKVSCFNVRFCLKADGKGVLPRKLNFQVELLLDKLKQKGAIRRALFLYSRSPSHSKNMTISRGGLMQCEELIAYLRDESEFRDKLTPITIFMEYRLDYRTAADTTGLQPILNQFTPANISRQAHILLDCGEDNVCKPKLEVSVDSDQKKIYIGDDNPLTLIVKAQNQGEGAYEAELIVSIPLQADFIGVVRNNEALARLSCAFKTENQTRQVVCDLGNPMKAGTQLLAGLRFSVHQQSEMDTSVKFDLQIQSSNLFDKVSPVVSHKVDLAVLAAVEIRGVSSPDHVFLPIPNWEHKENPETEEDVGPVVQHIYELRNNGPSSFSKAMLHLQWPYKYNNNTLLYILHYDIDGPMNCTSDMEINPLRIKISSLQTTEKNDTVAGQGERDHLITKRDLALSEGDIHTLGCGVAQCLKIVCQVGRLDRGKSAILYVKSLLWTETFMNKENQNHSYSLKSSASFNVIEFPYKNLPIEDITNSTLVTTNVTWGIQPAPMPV
T5 sequence (P18564 22-709 limits assumed): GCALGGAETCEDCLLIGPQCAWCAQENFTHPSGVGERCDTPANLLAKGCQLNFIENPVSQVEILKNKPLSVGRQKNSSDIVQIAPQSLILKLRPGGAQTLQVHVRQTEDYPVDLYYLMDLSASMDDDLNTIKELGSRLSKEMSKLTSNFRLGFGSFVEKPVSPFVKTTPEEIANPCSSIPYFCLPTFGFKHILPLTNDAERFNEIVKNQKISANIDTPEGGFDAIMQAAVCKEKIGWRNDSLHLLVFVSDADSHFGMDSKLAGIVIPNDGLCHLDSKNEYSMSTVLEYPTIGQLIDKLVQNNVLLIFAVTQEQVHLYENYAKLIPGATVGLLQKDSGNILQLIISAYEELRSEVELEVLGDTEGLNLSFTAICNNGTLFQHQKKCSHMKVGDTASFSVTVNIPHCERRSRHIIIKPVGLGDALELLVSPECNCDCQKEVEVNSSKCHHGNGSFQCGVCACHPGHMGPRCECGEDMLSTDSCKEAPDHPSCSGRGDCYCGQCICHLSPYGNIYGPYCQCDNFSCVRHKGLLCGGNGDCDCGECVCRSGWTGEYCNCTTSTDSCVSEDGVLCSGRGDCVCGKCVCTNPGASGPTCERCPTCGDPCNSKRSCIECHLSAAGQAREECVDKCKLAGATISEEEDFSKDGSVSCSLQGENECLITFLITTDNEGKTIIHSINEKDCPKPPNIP
As to the kind of experiment: Human AlphaLISA integrin-ligand blocking assay (LAP). The class given is biochemical. Here is the method:
as §1, §2

Another series has as its target T6, hαvβ8 (Homo sapiens, UniProt P06756+P26012).
T6 construct: The full extracellular domains for all α and β integrin subunits; (GGGS)3 linker (C); acidic coiled-coil with cysteine (C); GG-Avitag (C); hexa-histidine tag (C); basic coiled-coil with cysteine (C); made in house; host or cells: Expi293 cells
The series is described as above. The class given is biochemical. How it is done: as §1, §2

The next series concerns the target T7, mαvβ1 (Mus musculus, UniProt P09055+P43406).
T7 construct: The full extracellular domains for all α and β integrin subunits; (GGGS)3 linker (C); acidic coiled-coil with cysteine (C); GG-Avitag (C); hexa-histidine tag (C); basic coiled-coil with cysteine (C); made in house; host or cells: Expi293 cells
The series can be described thus: Mouse AlphaLISA integrin-ligand blocking assay (fibronectin). It is filed as biochemical. To be noted: Table 12; read-out: IC50 Mouse integrin AlphaLISA assays mαvβ1. How it is done:
as §1, §2

Another series addresses T8, mα5β1 (Mus musculus, UniProt P09055+P11688).
T8 construct: The full extracellular domains for all α and β integrin subunits; (GGGS)3 linker (C); acidic coiled-coil with cysteine (C); GG-Avitag (C); hexa-histidine tag (C); basic coiled-coil with cysteine (C); made in house; host or cells: Expi293 cells
The series is described as above. It is filed as biochemical. The settings on record: Table 12; read-out: IC50 Mouse integrin AlphaLISA assays mα5β1. How it is done: as §1, §2

The target of the next series is T9, mouse αvβ3 (Mus musculus, UniProt O54890+P43406).
T9 construct: expressed in transfected cells
As to the kind of experiment: Cell adhesion assay, CHOK1-mαvβ3 cells on vitronectin. It is filed as cell-based. The settings on record: FIG. 11. Here is the method:
(§3) Cell adhesion assay. For plate preparation, Epic 384-well assay plates (Corning #5040) were washed with OptiMEM™ (Gibco #31985-070) and coated with murine fibronectin (Abcam #ab92784) at a concentration of 0.1 μg/well for CHO-α5KO-mαvβ1 cells; murine vitronectin (Abcam #ab92727) at 0.075 μg/well for CHO-mαvβ3 cells; or murine vitronectin at 0.125 μg/well for CHO-mαvβ5 (all at a volume of 25 μL/well in OptiMEM™), for one hour. Coating solution was then removed by flicking and plates were washed with OptiMEM™ and blocked with 25 μL/well of assay buffer (1% Ovalbumin (Sigma #A5503-10G) in OptiMEM™ containing 1×Pen-Strep (Gibco #15140-148)). A 5-minute baseline reading was taken on a Corning Epica Plate Reader (Model: Epic BT-157900) before removing the assay buffer and adding cells pre-incubated with inhibitors. The Epic™ plate reader detects cellular mass redistribution (adhesion) on the plate surface as a picometer wavelength shift over time. For inhibitor titration preparation: fivefold serial dilutions of small molecule inhibitor MK-0429 or antibody inhibitor Ab-31 were prepared in assay buffer at 4× the final concentration in a 384-well polypropylene plate in a volume of 15 μL per well, starting at a concentration of 800 nM. […]

A further series has as its target T10, mouse αvβ1 (Mus musculus, UniProt P09055+P43406).
T10 construct: expressed in transfected cells
The series can be described thus: Cell adhesion assay, CHOK1-α5KO-mαvβ1 cells on fibronectin. The settings on record: FIG. 11. It is filed as cell-based. Here is the method:
as §3

Like-named read-outs stand apart in the source and are kept apart here.

The IC50 is the point on the concentration scale where inhibition reaches its midpoint.

T1 sequence (P06756 31-992 limits assumed): as the sequence (P06756 31-992 limits assumed) above
T1 sequence (P05556 21-728 limits assumed): as the sequence (P05556 21-728 limits assumed) above
T6 sequence (P06756 31-992 limits assumed): as the sequence (P06756 31-992 limits assumed) above
T6 sequence (P26012 43-684 limits assumed): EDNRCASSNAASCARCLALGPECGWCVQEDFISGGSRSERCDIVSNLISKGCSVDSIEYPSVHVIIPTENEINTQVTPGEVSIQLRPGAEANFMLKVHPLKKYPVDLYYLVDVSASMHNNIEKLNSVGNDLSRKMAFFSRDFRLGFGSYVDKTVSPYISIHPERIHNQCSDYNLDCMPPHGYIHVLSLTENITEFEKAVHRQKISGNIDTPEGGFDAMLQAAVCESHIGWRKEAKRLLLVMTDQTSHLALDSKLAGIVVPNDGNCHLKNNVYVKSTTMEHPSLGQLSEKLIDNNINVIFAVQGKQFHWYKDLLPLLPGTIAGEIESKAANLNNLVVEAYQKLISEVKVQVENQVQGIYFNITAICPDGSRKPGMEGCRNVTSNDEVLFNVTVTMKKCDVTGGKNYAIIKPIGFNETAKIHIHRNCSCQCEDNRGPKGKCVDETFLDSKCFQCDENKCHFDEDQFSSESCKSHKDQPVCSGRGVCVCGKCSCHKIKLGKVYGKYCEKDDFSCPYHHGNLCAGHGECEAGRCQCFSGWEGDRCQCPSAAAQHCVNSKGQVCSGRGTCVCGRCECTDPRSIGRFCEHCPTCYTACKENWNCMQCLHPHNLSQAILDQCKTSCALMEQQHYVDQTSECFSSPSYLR

As for `COc1ccc([C@H](CC(=O)O)N2CCN(CCCc3ccc4c(n3)NCCC4)C2=O)cn1` [MK-0429, (3S)-3-(6-methoxypyridin-3-yl)-3-[2-oxo-3-[3-(5,6,7,8-tetrahydro-1,8-naphthyridin-2-yl)propyl]imidazolidin-1-yl]propanoic acid], the IC50 at hαvβ1 (FIG. 3D, curve-fitted, read-out: IC50 against human αvβ1, AlphaLISA) was found to be 0.46 nM; at hαvβ1 (Table 11, read-out: IC50 Human integrin AlphaLISA assays hαvβ1) it was 1 nM; on hα5β1 (FIG. 3D, curve-fitted, read-out: IC50 against human αvβ1 (as printed, sixth integrin listed), AlphaLISA) it was 17.3 nM; at hα5β1 (Table 11, read-out: IC50 Human integrin AlphaLISA assays hα5β1), 26.5 nM; on mαvβ3, 0.9 nM; on mαvβ5, 48.3 nM. In addition, the IC50 at hαvβ6 (FIG. 3D, curve-fitted, read-out: IC50 against human αvβ6, AlphaLISA) worked out at 3.8 nM; at hαvβ6 (Table 11, read-out: IC50 Human integrin AlphaLISA assays hαvβ6) it was 0.5 nM; on hαvβ8 (FIG. 3D, curve-fitted, read-out: IC50 against human αvβ1 (as printed, fifth integrin listed), AlphaLISA), 58.3 nM; at hαvβ8 (Table 11, read-out: IC50 Human integrin AlphaLISA assays hαvβ8) it was 3.1 nM; on mαvβ1 it was 1.3 nM; on mα5β1 it was 50.3 nM. Further, in [1], the oral bioavailability entry is given as “good oral bioavailability”. Also, the “cell adhesion of mouse αvβ3 on a vitronectin matrix” value on mouse αvβ3 was “decreased”. Moreover, the “adhesion of mouse αvβ1-expressing CHOK1-α5KO cells” value on mouse αvβ1 is on record as “potently reduced”.

The values are drawn from patent publication US20250313635A1, “ANTI-INTEGRIN ANTIBODIES AND USES THEREOF” (Merck Sharp & Dohme LLC, priority 2022, published 2025).
